Source: PubChem BioAssay AID2060489 (Molecular Pharmacology Branch, DTP, NCI, 2025)

Tested on: 922993-354-T-J3-PDC complex spheroids, viability
Experiment: Anticancer human tumor 922993-354-T-J3-PDC patient-derived endometrial carcinoma cell line growth inhibition [GQUAD]
Conditions: for IC50: curve of first compound; for viability, T/C: stronger effect = lower value
Description: DNA G-quadruplex Stabilizer Agents in Combinations in Complex Spheroids
A high-throughput screen of multi-cell type tumor spheroids was designed to identify active combinations of DNA G-quadruplex stabilizer agents and targeted small molecules. Complex spheroids include a stromal component modeled by human endothelial cells (HUVEC) and fibroblasts modeled by human mesenchymal stem cells (MSCs). The concentration ranges selected for each drug and investigational agent were based upon clinically achievable concentrations if the clinical Cmax of the agent was known.
Compounds. The drugs and investigational agents: pidnarulex (CX-5461; NSC782164), APTO-253 (NSC789042), BRACO-19 (NSC847499), peposertib (NSC802822), ceralasertib (NSC780249), elimusertib (NSC800525), camonsertib (NSC841442), AZD-1390 (NSC803789), olaparib (NSC753686), talazoparib (NSC767125), ART-558 (NSC835418), sotorasib (NSC818433), MRTX-1133 (NSC836407), SN-38 (NSC673596), topotecan (NSC609699), etoposide (NSC141540), doxorubicin (NSC123127), gemcitabine (NSC613327), 5-fluorouracil (NSC19893), paclitaxel (NSC125973), vemurafenib (NSC761431), panobinostat (NSC761190), R-306465 (JNJ-16241199; NSC773264), adavosertib (NSC754352), TP-3654 (NSC805149), carboplatin (NSC241240), KSQ-4279 (NSC840948), and staurosporine (NSC755774) were obtained from the National Cancer Institute (NCI) Developmental Therapeutics Program Chemical Repository (34). The FDA-approved anticancer drug set is available from the NCI Developmental Therapeutics Program. […] The stock solutions were prepared in dimethyl sulfoxide (DMSO, Sigma-Aldrich, St. Louis, MO, cat. D2650) at 800-fold the tested concentration and stored at -70 degrees C prior to their use. All drugs and investigational agents were tested over a range starting from a high concentration at or near the clinical Cmax and decreasing in half-log increments. If the clinical Cmax for an agent had not been determined, the highest concentration tested was 10 microM.
2.3 Cell Culture. All cells were maintained in an incubator at 37 degrees C and 5% CO2 with 95% humidity. The PDC lines were cultured according to standard operating procedures established by the NCI PDMR. All PDCs were thawed and cultured in Matrigel-coated flasks prepared with a working solution of 1X Ham's F-12 nutrient mix, without supplementation (Invitrogen, cat. 11765054), 100 U/mL penicillin-streptomycin (Invitrogen, cat. 15140122), and 2.5% Matrigel (Corning Inc., cat. 354248) for the first three passages. The 857933-349-R-J2-PDC line was cultured in 6C/Colon 1B media, which includes advanced DMEM/F-12 (Thermo Fisher Scientific, cat. 12634028), 10 mM HEPES (Thermo Fisher Scientific, cat. 15630080), 1X GlutaMAX supplement (Thermo Fisher Scientific, cat. 35050061), 0.1 mg/mL primocin (InvivoGen, cat. ant-pm-2), 10% defined fetal bovine serum, heat inactivated (HyClone Laboratories Inc., cat. SH30070.03HI), 50% L-WRN conditioned media (ATCC, cat. CRL-3276), 1.25 mM N-Acetyl-L-cysteine (Sigma-Aldrich, cat. A9165), 10 mM nicotinamide (Sigma-Aldrich, cat. N0636), 1X B-27 supplement (Thermo Fisher Scientific, cat. 17504044), 1X N-2 supplement (Thermo Fisher Scientific, cat. 17502048), 10 microM Y-27632 dihydrochloride (Tocris Bioscience, cat. 1254), and 50 ng/mL human EGF recombinant protein (Thermo Fisher Scientific, cat. PHG0311). The 485176-168-R4-J1-PDC line was cultured in Panc media, which includes all 6C/Colon 1B media components plus 100 ng/mL human FGF-10 (Thermo Fisher Scientific, cat. 100-26), 500 nM SB-431542 (Selleckchem, cat. S1067), and gastrin (Tocris, cat. 3006).
[…]

[1] = second compound 0.0316 µM, first compound 0.0316 µM
[2] = second compound 0.0316 µM, first compound 0.1 µM
[3] = second compound 0.0316 µM, first compound 0.316 µM
[4] = second compound 0.0316 µM, first compound 1 µM
[5] = second compound 0.0316 µM, first compound 3.16 µM
[6] = second compound 0.0316 µM, first compound 10 µM
[7] = second compound 0.1 µM, first compound 0.0316 µM
[8] = second compound 0.1 µM, first compound 0.1 µM
[9] = second compound 0.1 µM, first compound 0.316 µM
[10] = second compound 0.1 µM, first compound 1 µM
[11] = second compound 0.1 µM, first compound 3.16 µM
[12] = second compound 0.1 µM, first compound 10 µM
[13] = second compound 0.316 µM, first compound 0.0316 µM
[14] = second compound 0.316 µM, first compound 0.1 µM
[15] = second compound 0.316 µM, first compound 0.316 µM
[16] = second compound 0.316 µM, first compound 1 µM
[17] = second compound 0.316 µM, first compound 3.16 µM
[18] = second compound 0.316 µM, first compound 10 µM
[19] = second compound 1 µM, first compound 0.0316 µM
[20] = second compound 1 µM, first compound 0.1 µM
[21] = second compound 1 µM, first compound 0.316 µM
[22] = second compound 1 µM, first compound 1 µM
[23] = second compound 1 µM, first compound 3.16 µM
[24] = second compound 1 µM, first compound 10 µM
[25] = second compound 3.16 µM, first compound 0.0316 µM
[26] = second compound 3.16 µM, first compound 0.1 µM
[27] = second compound 3.16 µM, first compound 0.316 µM
[28] = second compound 3.16 µM, first compound 1 µM
[29] = second compound 3.16 µM, first compound 3.16 µM
[30] = second compound 3.16 µM, first compound 10 µM
[31] = second compound 10 µM, first compound 0.0316 µM
[32] = second compound 10 µM, first compound 0.1 µM
[33] = second compound 10 µM, first compound 0.316 µM
[34] = second compound 10 µM, first compound 1 µM
[35] = second compound 10 µM, first compound 3.16 µM
[36] = second compound 10 µM, first compound 10 µM
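Further: spheroids exposed to compounds for seven days.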
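Wherever viability, T/C is given: 100% = DMSO vehicle control viability.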

For `CC(C)n1c(=O)n(C)c2cnc3cc(F)c(-c4ccc(OCCCN5CCCCC5)nc4)cc3c21` + CN(C)c1ccc(Nc2c3ccc(NC(=O)CCN4CCCC4)cc3nc3cc(NC(=O)CCN4CCCC4)ccc23)cc1, the IC50 (second compound 0.0316 µM) was over 10000 nM, the IC50 (second compound 0.1 µM) was over 10000 nM and the IC50 (second compound 0.316 µM) was over 10000 nM. For the same compound, the IC50 (second compound 1 µM) was over 10000 nM, the IC50 (second compound 3.16 µM) was 7040 nM and the IC50 (second compound 10 µM) was 1820 nM. The viability, T/C [1] was 118%, the viability, T/C [2] was 84.9% and the viability, T/C [3] was 99.3%. It also gave a viability, T/C [4] of 59.6%, a viability, T/C [5] of 91.7% and a viability, T/C [6] of 71.4%. It also gave a viability, T/C [7] of 114%, a viability, T/C [8] of 89.5% and a viability, T/C [9] of 101%. The viability, T/C [10] was 73.3%, the viability, T/C [11] was 81.7% and the viability, T/C [12] was 59%. The viability, T/C [13] was 99.3%, the viability, T/C [14] was 91.7% and the viability, T/C [15] was 97%. For the same compound, the viability, T/C [16] was 70.2%, the viability, T/C [17] was 84.7% and the viability, T/C [18] was 70.9%. For the same compound, the viability, T/C [19] was 81.2%, the viability, T/C [20] was 97% and the viability, T/C [21] was 92.2%. It also gave a viability, T/C [22] of 82.1%, a viability, T/C [23] of 77.1% and a viability, T/C [24] of 65%. The viability, T/C [25] was 96.8%, the viability, T/C [26] was 103% and the viability, T/C [27] was 98.5%. It also gave a viability, T/C [28] of 76%, a viability, T/C [29] of 67.6% and a viability, T/C [30] of 43%. It also gave a viability, T/C [31] of 114%, a viability, T/C [32] of 73.7% and a viability, T/C [33] of 114%. It also gave a viability, T/C [34] of 67%, a viability, T/C [35] of 36.1% and a viability, T/C [36] of 32.3%.

`CC1COCCN1c1cc(-c2ccnn2C)c2ccnc(-c3ccn[nH]3)c2n1` (centres undefined) + CN(C)c1ccc(Nc2c3ccc(NC(=O)CCN4CCCC4)cc3nc3cc(NC(=O)CCN4CCCC4)ccc23)cc1 showed an IC50 (second compound 0.0316 µM) of 260 nM, an IC50 (second compound 0.1 µM) of 190 nM and an IC50 (second compound 0.316 µM) of 175 nM. It also gave an IC50 (second compound 1 µM) of 278 nM, an IC50 (second compound 3.16 µM) of 176 nM and an IC50 (second compound 10 µM) of 396 nM. The viability, T/C [1] was 98.4%, the viability, T/C [2] was 73.4% and the viability, T/C [3] was 50.3%. It also gave a viability, T/C [4] of 16.7%, a viability, T/C [5] of 18% and a viability, T/C [6] of 20%. For the same compound, the viability, T/C [7] was 110%, the viability, T/C [8] was 68.2% and the viability, T/C [9] was 36.1%. The viability, T/C [10] was 18.2%, the viability, T/C [11] was 20.2% and the viability, T/C [12] was 12.3%. The viability, T/C [13] was 105%, the viability, T/C [14] was 58.1% and the viability, T/C [15] was 46.9%. The viability, T/C [16] was 16.8%, the viability, T/C [17] was 16.5% and the viability, T/C [18] was 19.6%. The viability, T/C [19] was 84.8%, the viability, T/C [20] was 64.2% and the viability, T/C [21] was 54.2%. It also gave a viability, T/C [22] of 22.9%, a viability, T/C [23] of 19.1% and a viability, T/C [24] of 21.4%. The viability, T/C [25] was 119%, the viability, T/C [26] was 52.7% and the viability, T/C [27] was 54.3%. For the same compound, the viability, T/C [28] was 18.2%, the viability, T/C [29] was 21.3% and the viability, T/C [30] was 22.4%. The viability, T/C [31] was 130%, the viability, T/C [32] was 79.8% and the viability, T/C [33] was 65.2%. The viability, T/C [34] was 25.6%, the viability, T/C [35] was 21.2% and the viability, T/C [36] was 19.6%.
